Test results taken from a melting point compilation (Tetko et al.; mined from patent text by program, amines drawn as free bases though some values may be those of a salt).

Structure (SMILES) | melting point
CC(C)C[C@@H](C(=O)N1CCN(C(c2ccc(F)cc2)c2ccc(F)cc2)CC1)N(Cc1ccc(OC(C)(C)C)cc1)Cc1ccc(OC(C)(C)C)cc1 | 62 to 67 °C
CS(=O)(=O)c1ccc(Oc2cc(OC3CCOCC3)c3[nH]c(C4=NCC(CC(N)=O)S4)cc3c2)cn1 (stereo not given) | 136 to 138 °C
C[C@@H](n1cnc2cc(NC(=O)C(F)(F)F)c(F)cc2c1=O)[C@](O)(Cn1cncn1)c1ccc(F)cc1F | 130 to 132 °C
Cc1ccc(NC(=O)c2cccc(C(F)(F)F)c2)cc1/C=C/n1cnc2c(Nc3ccc(P(C)(C)=O)cc3)ncnc21 | 230 to 234 °C
CCC(=CC(CNC(=O)c1ccncc1)=NO)C(C)[N+](=O)[O-] (stereo not given) | 145 to 148 °C
CC(=O)NC(=O)C(Cl)c1ccccc1 (stereo not given) | 101 to 102 °C
C(=C\c1nc(COc2ccc(CCCCn3cnc4ccccc43)cc2)co1)/c1ccccc1 | 148 to 149 °C
CCN(CC)C(=O)c1cc(-c2ccccc2)c2sccc2c1 | 78 °C
CC(C)C(NC(=O)NCc1ccccc1)C(=O)NC(Cc1ccccc1)C(O)C(Cc1ccccc1)NC(=O)C(NC(=O)NCc1ccccc1)C(C)C (stereo not given) | 238 °C
CC1(C)CC(C(O)CNc2nc(NCc3ccccc3)nc(NCC(O)C3CC(C)(C)NC(C)(C)C3)n2)CC(C)(C)N1 (stereo not given) | 88 °C
CCc1nc2c(o1)C(=O)C=C(Nc1ccccc1)C2=O | 200 °C
Cc1sc(-c2ccccc2)nc1COc1ccc(COc2ncccc2C=O)cc1 | 101 to 102 °C
CCOC(=O)c1ncc2[nH]c3ccc([N+](=O)[O-])cc3c2c1C | 272 to 275 °C
O=C(Nc1c(Cl)ccc2nc(N3CCNCC3)ccc12)C1(C2CCCCC2)CC1 | 219 °C
Cc1nc(C(F)(F)F)ccc1C(=O)Nc1ccccc1 | 161 °C
CCOC(=O)c1cn(C2CC2)c2c(F)c(Br)c(F)c(F)c2c1=O | 187 to 189 °C
C[C@@H]1C(=O)C[C@H]2C[C@@H]1OO[C@@]2(C)/C=C\c1cccc(C(F)(F)F)c1 | 101 °C
CC(=O)c1cccc(S(=O)(=O)C[N+](=O)[O-])c1 | 99 to 100 °C
Clc1nc2cccc3c2n1CCC3 | 78 °C
COc1ccc(-n2nc(C(F)F)cc2-c2ccc(S(C)(=O)=O)cc2)cc1Cl | 169 to 171 °C
O=[N+]([O-])c1ccccc1NCc1ccco1 | 85.6 °C
O=C(O)[C@H](COCc1ccccc1)NC1(c2ccccc2)c2ccccc2-c2ccccc21 | 137 to 138 °C
CCc1nc2c(cnn2CC)c(NC2CCOCC2)c1CNC(=O)c1cccc(C(=O)NCc2ccc(Cl)c(-c3cccc(CN4CCN(C)CC4)c3)c2)c1 | 112 to 114 °C
CN1CCN(c2nc3sc4c(NCc5ccccn5)ncnc4c3c3c2CCC(C)(C)C3)CC1 | 200 to 202 °C

Structure (SMILES) | melting point
COc1cccc2c1C(C#N)C2 (stereo not given) | 58 to 59 °C
O=CCCc1nc(-c2ccc(Cl)cc2)co1 | 41 to 42 °C
Cc1ccc2cccc(OCc3c(C)ccc([N+](=O)[O-])c3C)c2n1 | 150 to 152 °C
C=CCOC(=O)c1ccc(OC(=O)c2ccc(OC)c(C34CC5CC(CC(C5)C3)C4)c2)c(C)c1 | 138 to 139 °C
Fc1ccc(-c2ncn(C3CC3)c2-c2ccncc2)cc1 | 129 to 130 °C
CCOC(=O)Nc1ccc(C(=O)OC)cc1 | 159 to 162 °C
COC(=O)C=C(Nc1cc2c(cc1OCc1ccccc1)N(C(=O)OC(C)(C)C)CC2COC(C)=O)C(F)(F)F (stereo not given) | 114 to 115 °C
CC1(C)CCc2c(N3CCOCC3)nc3sc4c(NCCc5c[nH]cn5)ncnc4c3c2C1 | 223 to 224 °C
O[C@@H]1CN(Cc2ccccc2)C[C@@H]1Oc1cccc(Cl)c1 (relative stereo) | 86 to 87.5 °C
CCCC1=C(C(=O)OCC)C(c2ccccc2OC)c2c[nH]nc2N1 (stereo not given) | 169 °C
CCOC(=O)CCc1cc(C(=O)CCCC(=O)O)ccc1OC | 124 to 126 °C
CCc1coc2cc(OCc3ccccc3)ccc12 | 69.5 to 70.5 °C
O=C(NCC(=O)c1c(O)cc(O)cc1OCc1ccccc1)OCc1ccccc1 | 129 to 131 °C
CS(=O)(=O)c1cccc(NC(=O)c2cnn3c(C(F)F)cc(-c4ccc(Cl)c(Cl)c4)nc23)c1 | 262 °C
CCOC(=O)C(=NO)c1ccc(F)cc1 | 117 to 118 °C
O=C1N(CC2CCCN2)c2ccccc2C12COc1cc3c(cc12)CCO3 (stereo not given) | 83 to 86 °C
CCCCOc1ccc(NC(=O)c2ccccc2C(c2ccc(O)cc2)c2ccc(O)cc2)cc1 | 110 to 112 °C
CCOC(=O)c1c(O)nc(SC(C)C)n1C(C)C | 97 to 98 °C
O=c1cc(-c2cc3ccccc3[nH]2)oc2ccccc12 | 157 to 158 °C
COc1ccc(S(=O)(=O)c2c(SC)nn3c(N)cc(C)nc23)cc1 | > 230 °C
COC(=O)C(CCCCCCCCCCCCC(C(=O)O)C1CC1)C1CC1 (stereo not given) | 59.4 to 60.5 °C
Cc1ccn2c(C)c(CCc3ccc4nc(N(C)C)oc4c3)nc2c1 | 67 to 69 °C
CCc1c(C)nc(SCc2cc(C)ccn2)[nH]c1=O | 130 to 132 °C
Cc1nnc2n1-c1ccccc1C(c1ccccc1Cl)=NC2 | 212 to 213 °C

Structure (SMILES) | melting point
Cc1oc(-c2ccccc2)nc1COc1ccc(CON)cc1 | 68 to 69 °C
Cc1csc(N)c1C(=O)c1ccc(Cl)cc1 | 148 to 150 °C
Cc1ccc(Sc2cncc3sccc23)cc1 | 94 to 95 °C
CSc1ncnc2c(C3OC(CO)C(O)C3O)csc12 (stereo not given) | 226 to 228 °C
CS(=O)(=O)c1cc(C(=O)O)cc([N+](=O)[O-])c1Cl | 190 to 194 °C
CCCC1=C(C#N)C(c2ccccc2Cl)c2c(n[nH]c2-c2ccccc2OC)N1 (stereo not given) | > 270 °C
COC(COC(=O)C1=C(C)NC2=C(C(=O)CN(Cc3ccccc3)C2)C1c1c(F)c(F)c(F)c(F)c1F)c1ccccc1 (stereo not given) | 220 to 222 °C
COc1ccc(C(Cl)C(C)(C)[N+](=O)[O-])cc1OC (stereo not given) | 109 to 110 °C
CC(C)C[C@H](NC(=O)OC(C)(C)C)C(=O)C=[N+]=[N-] | 72 to 74 °C
C=C(C)C(=O)c1nc(S(=O)C(C)C)n(-c2ccc(CC)cc2)c1Cl (stereo not given) | 83 to 84 °C
O=c1nc(-c2cccc(-c3cccs3)n2)sc2ccccc12 | 222 to 223 °C
O=C(NC[C@@H](C(=O)NO)N1CCCCC1)c1ccc(OCc2ccnc(-c3ccccc3)c2)cc1 | 177 °C
CC1(O)CC(=O)OC(CCc2ccc(OCc3ccccc3)cc2)C1Br (stereo not given) | 155 to 160 °C
Cc1noc(NS(=O)(=O)c2ccc(Cl)cc2Cl)c1Br | 138 to 141 °C
COc1cc([N+](=O)[O-])c(NC(C)=O)cc1Cl | 152 to 153 °C
COc1ccc(-c2nc(S(=O)(=O)c3ccc(C)cc3)n(Cc3ccccc3)c2-c2ccc(OC)cc2)cc1 | 154 to 156 °C
CN=C(NC)Nc1nc(CSCCNC2=NS(=O)(=O)N=C2NC)cs1 | 132 to 137 °C
Cc1ncc(CSSCc2cnc(C)c(O)c2CN(C)C)c(CN(C)C)c1O | 195 to 201 °C
COC(=O)C1Oc2ccccc2Cc2cccc(C)c2O1 (stereo not given) | 104 to 105 °C
CCOP(=O)(Cc1ccc(NC(=O)CCc2sc(N)nc2-c2ccc(Cl)cc2)cc1)OCC | 177 to 178 °C
O=C1CCC(=O)N1Cc1nc2sc3c(c2c(-c2ccc(Cl)cc2)c1Cl)CCN(Cc1ccccc1)C3 | 254 to 255 °C
CCOC(=O)C(=CNc1ncnn1C)C(=O)c1cc(F)c(Cl)nc1Cl | 102 to 103 °C
COc1cc([N+](=O)[O-])ccc1S(=O)(=O)N1C(=O)C(NC(C)=O)(c2ccccc2Cl)c2cc(Cl)ccc21 (stereo not given) | 205 to 210 °C
COCCN1C(=O)CCC(C)(C)c2ccc(Nc3ncc(Cl)c(Nc4c(F)cccc4OCC#N)n3)cc21 | 235 to 238 °C

Structure (SMILES) | melting point
Cc1ccc(-c2cccc(C(=O)O)c2)cc1 | 182 to 187 °C
O=C1NCC1NC(=O)C(C(=O)OCc1ccccc1)c1ccccc1 (stereo not given) | 164 to 166 °C
CCOC(=O)Cc1cc(C)c(C(=O)c2ccc(F)cc2)n1C | 84 to 86 °C
CC1(C(F)(F)F)CCCN1C(=O)c1c(F)cccc1F (stereo not given) | 119 to 120 °C
O=CC=CC(=C(c1ccc(F)cc1)c1ccc(F)cc1)c1nnn(C(c2ccccc2)(c2ccccc2)c2ccccc2)n1 | 122 to 124 °C
Cc1ccc2c(c1)CC1(CCC(=O)CC1)C21OCCO1 | 124 to 127 °C
CCCCCCCCCCCCCCCCCCOc1cc(OCC(=O)OC)cc(C(=O)N(CC(=O)OC)CC(=O)OC)c1 | 53 to 55 °C
COc1cccc([C@H]2O[C@H](CC(=O)Nc3cccc(CCCCC(=O)O)c3)C(=O)N(CC(C)(C)CO)c3ccc(Cl)cc32)c1OC | 117 to 119 °C
CCC(=O)Oc1ccc(NC(=O)OC(C)(C)C)cc1C(=O)O | 137 to 142 °C
CS(=O)(=O)c1ccc(-c2cnn(-c3ccc(C(F)(F)F)cc3)c(=O)c2-c2ccc(F)cc2)cc1 | 171 to 173 °C
NC(=O)C1=CCCNC1 | 122 to 124 °C
CCCCc1nc(Cl)c(COC(C)=O)n1Cc1ccc(-c2cccc(C(=O)O)c2)cc1 | 172 to 173 °C
CCOC(=O)CC(NC(=O)c1cc(NC(=O)OC(C)(C)C)cc(OCc2ccccc2)c1)c1ccccc1 (racemic) | 115 °C
O=c1c2cc(Cl)ccc2nc(CSc2ncnc3[nH]cnc23)n1-c1ccccc1Cl | 237 to 238 °C
CC(C)(C)OC(=O)CCOCCc1cccc(-c2nc(=O)c3ccccc3s2)n1 | 67.7 to 68.5 °C
Oc1ccc2c(c1)SCCc1c-2n(CCCCCN2CCCC2)c2ccc(O)cc12 | 202 to 204 °C
C=CCn1c(C(F)(F)F)nc2ccc(-n3c(=O)cc(C(F)(F)F)n(C)c3=O)cc21 | 171 to 173 °C
COc1ccc(Cl)c2c1CN(Nc1ccncc1)C2 | 229 to 230 °C
O=C(O)C(O)N1C(=O)CCN1c1cccc(C(F)(F)F)c1 (stereo not given) | 142 to 144 °C
FC(F)(F)Oc1ccc(C2=CCC3(CC2)OCCO3)cc1 | 53.9 to 55.5 °C
CCN(CC)CCN1C(=O)Nc2ccncc2C1c1ccccc1 (stereo not given) | 132 to 134 °C
CNC(=S)C1(c2cccnc2)CCCS1=O (stereo not given) | 204 °C
CCOCc1cc2c(=O)c(C(=O)NCc3ccc(Cl)cc3)cn(C)c2o1 | 211 to 212 °C
